Source: the supplement of paper PMC10307832

What was measured:
Assay in all cases: relative viability (nuclei count vs DMSO), 5 days (fraction); higher = more cells survive
Bosutinib = compound: COc1cc(Nc2c(C#N)cnc3cc(OCCCN4CCN(C)CC4)c(OC)cc23)c(Cl)cc1Cl [Bosutinib]
Method in brief: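 After an overnight hold at 37 °C, lung cancer cell lines in 1536-well plates were pinned with five library-drug doses (not always all listed), each √10 from the next, on vehicle-anchored plates. The cells stayed 5 days without fresh medium, then a one-step fix, permeabilisation and Hoechst stain preceded 4× imaging and MetaXpress nuclear counts. A plate passed only with control CV under 25% and at least one doubling. Viability is the median, over plates, of treated-well nuclei relative to vehicle-well nuclei.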

Bosutinib + Bortezomib = compound: COc1cc(Nc2c(C#N)cnc3cc(OCCCN4CCN(C)CC4)c(OC)cc23)c(Cl)cc1Cl [Bosutinib] + CC(C)C[C@H](NC(=O)[C@H](Cc1ccccc1)NC(=O)c1cnccn1)B(O)O [Bortezomib] (partner 0.002 µM)
Method in brief: (§1)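 The day after seeding in 1536-well plates, lung cancer cell lines were treated by pin tool with a single drug, or with a fixed anchor-drug dose together with five library-drug doses (not always all listed) in √10 steps. After 5 days, a combined fix-and-stain solution (final 0.05% Triton X-100, 1% formaldehyde, 1 ug/ml Hoechst) was added. Nuclei counted on 4× images gave relative viability as treated counts over vehicle counts, reported as the median of duplicate plates.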

Bosutinib + Navitoclax = compound: COc1cc(Nc2c(C#N)cnc3cc(OCCCN4CCN(C)CC4)c(OC)cc23)c(Cl)cc1Cl [Bosutinib] + CC1(C)CCC(c2ccc(Cl)cc2)=C(CN2CCN(c3ccc(C(=O)NS(=O)(=O)c4ccc(N[C@H](CCN5CCOCC5)CSc5ccccc5)c(S(=O)(=O)C(F)(F)F)c4)cc3)CC2)C1 [Navitoclax] (partner 0.5 µM)
Method in brief: as §1

Bosutinib + Foretinib = compound: COc1cc(Nc2c(C#N)cnc3cc(OCCCN4CCN(C)CC4)c(OC)cc23)c(Cl)cc1Cl [Bosutinib] + COc1cc2c(Oc3ccc(NC(=O)C4(C(=O)Nc5ccc(F)cc5)CC4)cc3F)ccnc2cc1OCCCN1CCOCC1 [Foretinib] (partner 0.25 µM)
Method in brief: as §1

Bosutinib + Lapatinib = compound: COc1cc(Nc2c(C#N)cnc3cc(OCCCN4CCN(C)CC4)c(OC)cc23)c(Cl)cc1Cl [Bosutinib] + CS(=O)(=O)CCNCc1ccc(-c2ccc3ncnc(Nc4ccc(OCc5cccc(F)c5)c(Cl)c4)c3c2)o1 [Lapatinib] (partner 2 µM)
Method in brief: as §1

Bosutinib + Pictilisib = compound: COc1cc(Nc2c(C#N)cnc3cc(OCCCN4CCN(C)CC4)c(OC)cc23)c(Cl)cc1Cl [Bosutinib] + CS(=O)(=O)N1CCN(Cc2cc3nc(-c4cccc5[nH]ncc45)nc(N4CCOCC4)c3s2)CC1 [Pictilisib] (partner 1 µM)
Method in brief: as §1

Bosutinib + Crizotinib = compound: COc1cc(Nc2c(C#N)cnc3cc(OCCCN4CCN(C)CC4)c(OC)cc23)c(Cl)cc1Cl [Bosutinib] + C[C@@H](Oc1cc(-c2cnn(C3CCNCC3)c2)cnc1N)c1c(Cl)ccc(F)c1Cl [Crizotinib] (partner 1 µM)
Method in brief: as §1

Bosutinib + Linsitinib = compound: COc1cc(Nc2c(C#N)cnc3cc(OCCCN4CCN(C)CC4)c(OC)cc23)c(Cl)cc1Cl [Bosutinib] + C[C@]1(O)C[C@@H](c2nc(-c3ccc4ccc(-c5ccccc5)nc4c3)c3c(N)nccn32)C1 [Linsitinib] (partner 1 µM)
Method in brief: as §1

Bosutinib + Alpelisib = compound: COc1cc(Nc2c(C#N)cnc3cc(OCCCN4CCN(C)CC4)c(OC)cc23)c(Cl)cc1Cl [Bosutinib] + Cc1nc(NC(=O)N2CCC[C@H]2C(N)=O)sc1-c1ccnc(C(C)(C)C(F)(F)F)c1 [Alpelisib] (partner 2 µM)
Method in brief: as §1

Bosutinib + Olaparib = compound: COc1cc(Nc2c(C#N)cnc3cc(OCCCN4CCN(C)CC4)c(OC)cc23)c(Cl)cc1Cl [Bosutinib] + O=C(c1cc(Cc2n[nH]c(=O)c3ccccc23)ccc1F)N1CCN(C(=O)C2CC2)CC1 [Olaparib] (partner 8 µM)
Method in brief: as §1

Bosutinib + Luminespib = compound: COc1cc(Nc2c(C#N)cnc3cc(OCCCN4CCN(C)CC4)c(OC)cc23)c(Cl)cc1Cl [Bosutinib] + CCNC(=O)c1noc(-c2cc(C(C)C)c(O)cc2O)c1-c1ccc(CN2CCOCC2)cc1 [Luminespib] (partner 0.01 µM)
Method in brief: as §1

Bosutinib + OSI-027 = compound: COc1cc(Nc2c(C#N)cnc3cc(OCCCN4CCN(C)CC4)c(OC)cc23)c(Cl)cc1Cl [Bosutinib] + COc1cccc2cc(-c3nc([C@H]4CC[C@H](C(=O)O)CC4)n4ncnc(N)c34)[nH]c12 [OSI-027] (partner 0.5 µM)
Method in brief: as §1

Bosutinib + Dasatinib = compound: COc1cc(Nc2c(C#N)cnc3cc(OCCCN4CCN(C)CC4)c(OC)cc23)c(Cl)cc1Cl [Bosutinib] + Cc1nc(Nc2ncc(C(=O)Nc3c(C)cccc3Cl)s2)cc(N2CCN(CCO)CC2)n1 [Dasatinib] (partner 0.075 µM)
Method in brief: as §1

Bosutinib + Phenformin = compound: COc1cc(Nc2c(C#N)cnc3cc(OCCCN4CCN(C)CC4)c(OC)cc23)c(Cl)cc1Cl [Bosutinib] + N=C(N)NC(=N)NCCc1ccccc1 [Phenformin] (partner 250 µM)
Method in brief: as §1

Bosutinib + Pemetrexed = compound: COc1cc(Nc2c(C#N)cnc3cc(OCCCN4CCN(C)CC4)c(OC)cc23)c(Cl)cc1Cl [Bosutinib] + Nc1nc2[nH]cc(CCc3ccc(C(=O)N[C@@H](CCC(=O)O)C(=O)O)cc3)c2c(=O)[nH]1 [Pemetrexed] (partner 0.2 µM)
Method in brief: as §1

NCI-H1299
relative viability (Bosutinib; 0.01 µM): 1.01
relative viability (Bosutinib; 0.03162 µM): 1.01
relative viability (Bosutinib; 0.1 µM): 1.03
relative viability (Bosutinib; 1 µM): 1.02
relative viability (Bosutinib + Bortezomib; first compound 0.01 µM): 1
relative viability (Bosutinib + Bortezomib; first compound 0.03162 µM): 1.06
relative viability (Bosutinib + Bortezomib; first compound 0.1 µM): 1.01
relative viability (Bosutinib + Bortezomib; first compound 1 µM): 1
relative viability (Bosutinib + Navitoclax; first compound 0.01 µM): 1.05
relative viability (Bosutinib + Navitoclax; first compound 0.03162 µM): 1.06
relative viability (Bosutinib + Navitoclax; first compound 0.1 µM): 0.995
relative viability (Bosutinib + Navitoclax; first compound 1 µM): 1.03
relative viability (Bosutinib + Foretinib; first compound 0.01 µM): 1.16
relative viability (Bosutinib + Foretinib; first compound 0.03162 µM): 1.14
relative viability (Bosutinib + Foretinib; first compound 0.1 µM): 1.13
relative viability (Bosutinib + Foretinib; first compound 1 µM): 0.989
relative viability (Bosutinib + Lapatinib; first compound 0.01 µM): 0.969
relative viability (Bosutinib + Lapatinib; first compound 0.03162 µM): 0.99
relative viability (Bosutinib + Lapatinib; first compound 0.1 µM): 0.903
relative viability (Bosutinib + Lapatinib; first compound 1 µM): 0.916
relative viability (Bosutinib + Pictilisib; first compound 0.01 µM): 0.777
relative viability (Bosutinib + Pictilisib; first compound 0.03162 µM): 0.989
relative viability (Bosutinib + Pictilisib; first compound 0.1 µM): 0.858
relative viability (Bosutinib + Pictilisib; first compound 1 µM): 0.515
relative viability (Bosutinib + Crizotinib; first compound 0.01 µM): 0.947
relative viability (Bosutinib + Crizotinib; first compound 0.03162 µM): 1
relative viability (Bosutinib + Crizotinib; first compound 0.1 µM): 0.965
relative viability (Bosutinib + Crizotinib; first compound 1 µM): 0.942
relative viability (Bosutinib + Linsitinib; first compound 0.01 µM): 1.05
relative viability (Bosutinib + Linsitinib; first compound 0.03162 µM): 0.983
relative viability (Bosutinib + Linsitinib; first compound 0.1 µM): 1.07
relative viability (Bosutinib + Linsitinib; first compound 1 µM): 0.92
relative viability (Bosutinib + Alpelisib; first compound 0.01 µM): 1.05
relative viability (Bosutinib + Alpelisib; first compound 0.03162 µM): 1.03
relative viability (Bosutinib + Alpelisib; first compound 0.1 µM): 1.05
relative viability (Bosutinib + Alpelisib; first compound 1 µM): 1.2
relative viability (Bosutinib + Olaparib; first compound 0.01 µM): 1
relative viability (Bosutinib + Olaparib; first compound 0.03162 µM): 0.982
relative viability (Bosutinib + Olaparib; first compound 0.1 µM): 0.994
relative viability (Bosutinib + Olaparib; first compound 1 µM): 0.96

NCI-H1563
relative viability (Bosutinib; 0.01 µM): 1.05
relative viability (Bosutinib; 0.03162 µM): 0.906
relative viability (Bosutinib; 0.1 µM): 0.928
relative viability (Bosutinib; 1 µM): 0.713
relative viability (Bosutinib + Bortezomib; first compound 0.01 µM): 0.885
relative viability (Bosutinib + Bortezomib; first compound 0.03162 µM): 0.775
relative viability (Bosutinib + Bortezomib; first compound 0.1 µM): 0.784
relative viability (Bosutinib + Bortezomib; first compound 1 µM): 0.659
relative viability (Bosutinib + Luminespib; first compound 0.01 µM): 0.516
relative viability (Bosutinib + Luminespib; first compound 0.03162 µM): 0.535
relative viability (Bosutinib + Luminespib; first compound 0.1 µM): 0.54
relative viability (Bosutinib + Luminespib; first compound 1 µM): 0.521
relative viability (Bosutinib + Foretinib; first compound 0.01 µM): 0.917
relative viability (Bosutinib + Foretinib; first compound 0.03162 µM): 0.953
relative viability (Bosutinib + Foretinib; first compound 0.1 µM): 0.846
relative viability (Bosutinib + Foretinib; first compound 1 µM): 0.676
relative viability (Bosutinib + OSI-027; first compound 0.01 µM): 0.794
relative viability (Bosutinib + OSI-027; first compound 0.03162 µM): 0.831
relative viability (Bosutinib + OSI-027; first compound 0.1 µM): 0.761
relative viability (Bosutinib + OSI-027; first compound 1 µM): 0.717
relative viability (Bosutinib + Lapatinib; first compound 0.01 µM): 0.869
relative viability (Bosutinib + Lapatinib; first compound 0.03162 µM): 0.931
relative viability (Bosutinib + Lapatinib; first compound 0.1 µM): 0.84
relative viability (Bosutinib + Lapatinib; first compound 1 µM): 0.758
relative viability (Bosutinib + Pictilisib; first compound 0.01 µM): 0.611
relative viability (Bosutinib + Pictilisib; first compound 0.03162 µM): 0.607
relative viability (Bosutinib + Pictilisib; first compound 0.1 µM): 0.613
relative viability (Bosutinib + Pictilisib; first compound 1 µM): 0.526
relative viability (Bosutinib + Crizotinib; first compound 0.01 µM): 0.896
relative viability (Bosutinib + Crizotinib; first compound 0.03162 µM): 0.753
relative viability (Bosutinib + Crizotinib; first compound 0.1 µM): 0.753
relative viability (Bosutinib + Crizotinib; first compound 1 µM): 0.658
relative viability (Bosutinib + Linsitinib; first compound 0.01 µM): 1.24
relative viability (Bosutinib + Linsitinib; first compound 0.03162 µM): 1.2
relative viability (Bosutinib + Linsitinib; first compound 0.1 µM): 1.06
relative viability (Bosutinib + Linsitinib; first compound 1 µM): 0.792
relative viability (Bosutinib + Alpelisib; first compound 0.01 µM): 0.905
relative viability (Bosutinib + Alpelisib; first compound 0.03162 µM): 0.904
relative viability (Bosutinib + Alpelisib; first compound 0.1 µM): 0.859
relative viability (Bosutinib + Alpelisib; first compound 1 µM): 0.63
relative viability (Bosutinib + Dasatinib; first compound 0.01 µM): 0.444
relative viability (Bosutinib + Dasatinib; first compound 0.03162 µM): 0.47
relative viability (Bosutinib + Dasatinib; first compound 0.1 µM): 0.446
relative viability (Bosutinib + Dasatinib; first compound 1 µM): 0.472
relative viability (Bosutinib + Phenformin; first compound 0.01 µM): 0.65
relative viability (Bosutinib + Phenformin; first compound 0.03162 µM): 0.635
relative viability (Bosutinib + Phenformin; first compound 0.1 µM): 0.617
relative viability (Bosutinib + Phenformin; first compound 1 µM): 0.573
relative viability (Bosutinib + Pemetrexed; first compound 0.01 µM): 0.655
relative viability (Bosutinib + Pemetrexed; first compound 0.03162 µM): 0.771
relative viability (Bosutinib + Pemetrexed; first compound 0.1 µM): 0.772
relative viability (Bosutinib + Pemetrexed; first compound 1 µM): 0.638
